Tested on: wHTel-26 (DNA, G4) TTAGGGTTAGGGTTAGGGTTAGGGTT
Test: CD melting
Settings: 100 mM KCl; 10 mM phosphate, 1 mM EDTA, pH 7.0; 20 µM DNA, D/N 5.0

Question: Which Tm does the source give for `CCN(CC)CCC(=O)Nc1ccc2c(c1)C(=O)c1ccc(NC(=O)CCN(CC)CC)cc1C2=O` here?
Answer: 10–13 (±2) °C

Reference: article PMC9720492 (2022)
